Values quoted from earlier work as cited in US6368613B1, “Use of fluorocarbons for diagnosis and treatment of articular disorders” (Alliance Pharmaceutical Corp., priority 1996, dated 2002).
Marks after values point to notes of the source that are not given here.

Conditions: in octanol/pH 7.4 isotonic phosphate buffer at 37° C. (marked a)

Structure (SMILES)	Log Po/w	Po/w
CN(C)CCCN1c2ccccc2CCc2ccc(Cl)cc21 [clomipramine]	3.58^a	3.80 × 10^3
CCc1cc2c(s1)N(C)C(=O)CN=C2c1ccccc1Cl [clotiazepam]	3.49^a	3.06 × 10^3
CCCCCC(=O)OCCOCn1cnc2c(=O)[nH]c(N)nc21 [hexanoyl acyclovir]	–	8.58
CC(C)=CCN1CCC2(C)c3cc(O)ccc3CC1C2C (centres unmarked) [pentazocin]	2.18^a	150
CC(CN1c2ccccc2Sc2ccccc21)N(C)C (centres unmarked) [promethazine]	3.10^a	1.27 × 10^3
OC(CCN1CCCCC1)(c1ccccc1)C1CCCCC1 (centres unmarked) [trihexyphenidyl]	3.17^a	1.47 × 10^3
CCCCC(=O)OCCOCn1cnc2c(=O)[nH]c(N)nc21 [valeryl acyclovir]	–	2.01

Same assay, conditions: octanol/water partition coefficient

Structure (SMILES)	Log Po/w	Po/w
c1ccc2cc3ccccc3cc2c1 [C-anthracene, anthracene]	4.5	3.16 × 10^4
CCCCCCCCCCCC(=O)N1CCCCCC1 [C-hexamethylenelauramide, hexamethylenelauramide]	7.3	2.00 × 10^7
CCCCC(CC)COC(=O)c1ccc(N(C)C)cc1 (centres unmarked) [C-padimate-o, padimate-o]	6.6	3.98 × 10^6
C[C@]12CC[C@H]3[C@@H](CCC4=CC(=O)CC[C@@]43C)[C@@H]1CC[C@@H]2O [C-testosterone, testosterone]	3.3	2.00 × 10^3
CC/C(=C(/CC)c1ccc(O)cc1)c1ccc(O)cc1 [H -diethylstilbesterol, diethylstilbesterol]	5.1	1.26 × 10^5
CC(=O)[C@@]1(O)CC[C@H]2[C@@H]3C[C@H](C)C4=CC(=O)C=C[C@]4(C)[C@@]3(F)[C@@H](O)C[C@@]21C [H -fluorornetholone, fluorornetholone]	2.1	1.26 × 10^2
Clc1cccc(Cl)c1N=C1NCCN1 [H-clonidine, clonidine]	1.4	25.1
COc1ccc(C(=O)CC(=O)c2ccc(C(C)(C)C)cc2)cc1 [H-parsol 1789, parsol 1789]	6.7	5.0 × 10^6
CCCCN1CCCCC1C(=O)Nc1c(C)cccc1C (centres unmarked) [bupivacaine]	1.45	28.2
FC(F)(F)C(Cl)Br (centres unmarked) [halothane]	2.30	2.00 × 10^2
O=C1CN=C(c2ccccc2)c2cc([N+](=O)[O-])ccc2N1 [nitrazepam]	2.21	162
CCCCNc1ccc(C(=O)OCCN(C)C)cc1 [tetracaine]	1.90	79.4

Same assay, conditions: pH 7.4

Structure (SMILES)	Log Po/w
CCCCCC(=O)OCCOCn1cnc2c(=O)[nH]c(N)nc21 [hexanoyl acyclovir]	0.93^a
CCCCC(=O)OCCOCn1cnc2c(=O)[nH]c(N)nc21 [valeryl acyclovir]	0.30^a
